18 compounds from patent publication US20020128321A1, “IL-8 receptor antagonists” (SmithKline Beecham Corporation, priority 1996, published 2002) can be followed below.

By melting point is commonly meant the temperature, or range, at which the solid turns liquid.

The structures appear in SMILES notation.

Tested on in the first data set: not given
Experiment: not given
Conditions: not given
In turn, `O=C(Nc1ccc([N+](=O)[O-])cc1O)Nc1ccccc1Sc1ccccc1[N+](=O)[O-]` gave a melting point of 204.1 to 205.3 °C. Still for that read-out and setting: with `COC(=O)c1ccc(NC(=O)Nc2ccccc2)c(O)c1` [Example 1, N-[2-Hydroxy-4-(methoxycarbonyl)phenyl]-N′-phenyl urea] the figure was 188.4 to 188.8 °C; with `NC(=O)c1ccc(NC(=O)Nc2ccccc2)c(O)c1` [Example 3, 3-hydroxy-4-{[(phenylamino)carbonyl]amino}benzamide], 106.8 to 107.1 °C; with `O=C(Nc1ccccc1)Nc1ccc(F)cc1O` [Example 4, N-(2-hydroxy-4-fluorophenyl)-N′-phenyl urea], 195.5 to 195.7 °C. The same measure, in the same setting: to `O=C(Nc1ccccc1)Nc1ccccc1S` [Example 5, 2-{[(phenylamino)carbonyl]amino}thiophenol] belongs 194.5 °C; to `COc1ccsc1NC(=O)Nc1cc([N+](=O)[O-])ccc1O` [Example 11, N-(2-hydroxy-5-nitrophenyl)-N′-(3-methoxy-2-thienyl)urea], 172.6 to 173 °C; to `O=C(Nc1cccc(C(F)(F)F)c1O)Nc1cccc(Cl)c1Cl` [Example 203, N-(2-hydroxy-3-trifluoromethylphenyl)-N′-(2,3-dichlorophenyl)urea], 204.3 to 205.2 °C. Same read-out and setting: to `O=C(Nc1ccccc1-c1ccccc1)Nc1cccc(C(F)(F)F)c1O` [Example 204, N-(2-hydroxy-3-trifluoromethylphenyl)-N′-(2-phenylphenyl)urea] belongs 136.7 to 137.3 °C; to `O=C(Nc1ccccc1Cl)Nc1cccc(C(F)(F)F)c1O` [Example 213, N-(2-hydroxy-3-trifluoromethylphenyl)-N′-(2-chlorophenyl)urea], 179.3 °C. `O=C(NCCO)Nc1ccc([N+](=O)[O-])cc1O` [Example 214, N-(2-Hydroxyethyl)-N′-(2-hydroxy-4-nitrophenyl)urea] showed a melting point of 168.2 to 168.8 °C.

`O=C(Nc1ccc([N+](=O)[O-])cc1O)Nc1ccccc1NS(=O)(=O)c1cccs1` [Example 216, N-[2-(2-thienylsulfonylamino)phenyl]-N′-(2-hydroxy-4-nitrophenyl)urea] registered a melting point of 149 to 149.6 °C. Same read-out and setting: with `O=C(Nc1ccc([N+](=O)[O-])cc1O)Nc1ccccc1OCc1cccnc1` [Example 221, N-[2-(3-Pyridylmethoxy)phenyl]-N′-(2-hydroxy-4-nitrophenyl)urea] the figure was 185.4 to 186.2 °C; with `O=C(Nc1ccc([N+](=O)[O-])cc1O)Nc1ccccc1OCc1ccncc1` [Example 222, N-[2-(4-Pyridylmethoxy)phenyl]-N′-(2-hydroxy-4-nitrophenyl)urea], 189.3 to 189.7 °C. For `COC(=O)Nc1ccccc1NC(=O)Nc1ccc([N+](=O)[O-])cc1O` [Example 223, N-[2-(Methoxycarbonylamino)phenyl]-N′-(2-hydroxy-4nitrophenyl)urea], the melting point lay within 199.3 to 199.6 °C.

Turning to `N#Cc1ccc(NC(=O)Nc2ccccc2NCc2ccccc2)c(O)c1` [Example 232, N-(2-Hydroxy-4-cyanophenyl)-N′-(2-benzylaminophenyl)urea], the melting point was in the range of 108.8 to 109.4 °C. On the same count and under the same terms, to `NC(=O)N(c1ccc([N+](=O)[O-])cc1O)c1ccccc1OCc1ccccn1` [Example 233, N′-[2-(2-Pyridylmethoxy)phenyl]-N′-(2-Hydroxy-4-nitrophenyl)urea] belongs 193.5 to 194 °C; to `O=C(Nc1ccc([N+](=O)[O-])cc1O)Nc1ccccc1NC(=O)c1ccccc1` [Example 236, N-[2-(Benzoylamino)phenyl]-N′-(2-hydroxy-4-nitrophenyl)urea], 188.7 to 189.3 °C.

The target in the next data set is T1, recombinant IL-8 Rb, or Type II, receptor (permissive receptor) (Homo sapiens, UniProt P25025).
T1 construct: expressed in transfected cells; host or cells: Chinese hamster ovary cells (membrane preparation)
T1 sequence (P25025 1-360): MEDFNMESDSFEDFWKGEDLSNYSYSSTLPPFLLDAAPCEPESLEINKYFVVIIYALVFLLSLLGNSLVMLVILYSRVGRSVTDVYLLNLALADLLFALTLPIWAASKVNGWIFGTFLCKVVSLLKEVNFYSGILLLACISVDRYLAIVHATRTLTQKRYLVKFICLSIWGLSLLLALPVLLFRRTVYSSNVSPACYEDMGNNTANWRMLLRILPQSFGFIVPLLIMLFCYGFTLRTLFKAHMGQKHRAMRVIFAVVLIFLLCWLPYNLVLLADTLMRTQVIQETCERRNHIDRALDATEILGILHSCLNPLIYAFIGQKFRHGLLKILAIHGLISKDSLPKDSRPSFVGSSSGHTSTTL
In words: Receptor binding assay, 125I IL-8, permissive (Type II) receptor. The following applies: concentration at which active. From the text:
[^125I] IL-8 (human recombinant) was obtained from Amersham Corp., Arlington Heights, Ill., with specific activity 2000 Ci/mmol. Gro-a was obtained from NEN-New England Nuclear. All other chemicals were of analytical grade. High levels of recombinant human IL-8 type a and b receptors were individually expressed in Chinese hamster ovary cells as described previously (Holmes, et al., Science, 1991, 253, 1278). The Chinese hamster ovary membranes were homogenized according to a previously described protocol (Haour, et al., J Biol Chem., 249 pp 2195-2205 (1974)). Except that the homogenization buffer was changed to 10 mM Tris-HCL, 1 mM MgS04, 0.5 mM EDTA (ethylene-diaminetetra-acetic acid), 1 m MPMSF (a-toluenesulphonyl fluoride), 0.5 mg/L Leupeptin, pH 7.5. Membrane protein concentration was determined using Pierce Co. micro-assay kit using bovine serum albumin as a standard. All assays were performed in a 96-well micro plate format. Each reaction mixture contained ^125I IL-8 (0.25 nM) or ^125I Gro-a and 0.5 μg/mL of IL-8Ra or 1.0 μg/mL of IL-8Rb membranes in 20 mM Bis-Trispropane and 0.4 mM Tris HCI buffers, pH 8.0, containing 1.2 mM MgSO4, 0.1 mM EDTA, 25 mM NaCl and 0.03% CHAPS. […] The filter was then dried and counted on the Betaplate liquid scintillation counter. […]
Turning to `Cc1cc(Cl)ccc1NC(=O)Nc1ccccc1C(=O)O` [1-(2-Carboxyphenyl)-3-(4-chloro-2-methylphenyl)urea], the “found to be active at (IL-8 receptor inhibition)” value is listed as “about 75 μg/mL”.
